# Reference: US10709140B2, “Methods and products for reducing the population size of Papilio demoleus L. (papilionidae)” (The University of The West Indies, priority 2010, dated 2020)
# Columns and labels:
# P. demoleus [1] = experiment: Egg laying by P. demoleus on Piper aduncum cuttings sprayed with lime oil or d-limonene (choice test, Example 5); type: in vivo, Papilio demoleus
# Protocol: Five P. demoleus pupae were placed in the cage. Upon hatching, the emerging adults were determined to be 3 males and 2 females. The butterflies were allowed to mate and given a choice of plants on which to lay by placing all around the cage unsprayed lime seedlings, unsprayed Piper aduncum cuttings, Piper aduncum cuttings sprayed with lime oil, and Piper aduncum cuttings sprayed with d-limonene. Egg laying was allowed to continue for up a total of 16 days, only the first 8 of which the Piper aduncum shoots remained fresh. Referring to Table 5A, a total of 16 eggs were laid in the first 8 days. The majority of eggs (62.5%) were laid on unsprayed lime plant. However, a significant number of eggs were laid on sprayed Piper aduncum shoots (37.5%). […] No eggs were laid on unsprayed Piper aduncum.
# After day 8, the Piper aduncum leaves began to wilt and were noticeably less attractive to gravid females. […] By day 20, no more eggs were laid, and the total number of eggs was counted.
# All of the eggs that were laid on lime plant hatched into larvae that fed normally on the lime plant leaves on which they were laid. The 6 eggs laid on Piper aduncum shoots sprayed with lime oil or d-limonene hatched normally. The Piper aduncum shoots were still young, fresh, and otherwise capable of sustaining larvae when the eggs laid eggs on sprayed Piper aduncum shoots hatched. […]
# P. demoleus [2] = experiment: Induced egg laying of P. demoleus on Piper amalago var. amalago plant sprayed with lime plant oil (choice test, Example 2); type: in vivo, Papilio demoleus; conditions: Piper amalago var. amalago plant sprayed with the attractant
# Source text: P. demoleus were induced to lay eggs on Piper amalago var. amalago plant to confirm its unsuitability to sustain target insects and to determine whether it could be used to reduce the population size of target insects. Natural Piper amalago var. amalago plant was considered a suitable non-host plant because P. demoleus would not feed or breed on it in the wild.
# Twelve pupae bred on lime plants were placed in the laying cage and were allowed to mate. Gravid females were given a choice of plants on which to lay: unsprayed lime, unsprayed Piper amalago var. amalago plant, and Piper amalago var. amalago plant sprayed with lime plant oil. Piper amalago var. amalago plant sprayed with lime plant oil was prepared using an aerosol spray containing 0.45% by weight lime plant oil in a hydrocarbon mixture. The aerosol mixture was applied to the young leaves of Piper amalago var. amalago plants twice daily.
# Gravid females were allowed to lay eggs until the laying subsided on the tenth day. Of the 95 eggs laid, the majority were laid on Piper amalago var. amalago plant sprayed with lime oil. Sixty-one eggs, or 64%, were laid on Piper amalago var. amalago plant sprayed with lime oil. Only 34 eggs, or 36%, were laid on unsprayed lime plant. No eggs were laid on unsprayed Piper amalago var. amalago plant. […]
structure (smiles),measurement,setting,value
C=C(C)[C@H]1CC=C(C)CC1 [d-limonene],eggs laid on sprayed Piper aduncum,"P. demoleus [1]; Days 1-8, choice vs unsprayed lime and unsprayed Piper aduncum, total 16 eggs",3 eggs
same,eggs laid on sprayed Piper aduncum,"P. demoleus [1]; Days 9-20 as titled, total 39 eggs",3 eggs
same,breeding and feeding on sprayed Piper amalago var. amalago plants,P. demoleus [2],"majority of the P. demoleus population was induced to breed, but not feed"
